From patent US8722717B2, “3-triazolylphenyl-substituted sulphide derivatives as acaricides and insecticides” (Bayer CropScience AG, priority 2009, dated 2014)

Experiments:
[1] = system: larvae of the mustard beetle (Phaedon cochleariae); experiment: Phaedon test (PHAECO spray treatment); type: in vivo; conditions: foliar, spray on Chinese cabbage leaf discs, application rate 500 g/ha, read-out: effect (100% means that all of the beetle larvae have been killed)
Protocol: (§1) Solvents: 78.0 parts by weight of acetone • • 1.5 parts by weight of dimethylformamide Emulsifier: 0.5 part by weight of alkylaryl polyglycol ether An appropriate preparation of active compound is prepared by mixing 1 part by weight of active compound with the stated amounts of solvent and emulsifier and diluting the concentrate with emulsifier-containing water to the desired concentration. Leaf discs of Chinese cabbage (Brassica pekinensis) are sprayed with a preparation of active compound at the desired concentration and, after they have dried, are populated with larvae of the mustard beetle (Phaedon cochleariae). After the desired time, the effect in % is determined. Here, 100% means that all of the beetle larvae have been killed; 0% means that no beetle larvae have been killed.

[2] = system: greenhouse red spidermite (Tetranychus urticae); experiment: Tetranychus test; OP resistant (TETRUR spray treatment), Example 5; type: in vivo; conditions: foliar, 144 h, spray on bean leaf discs, after 6 days, read-out: effect (100% means that all of the mites have been killed); for pest or weed control at 100 g/ha: application rate 100 g/ha; for pest or weed control at 500 g/ha: application rate 500 g/ha
Protocol: as §1, with “bean (Phaseolus vulgaris) infested by all stages of the greenhouse red spidermite (Tetranychus urticae)” for “Chinese cabbage (Brassica pekinensis)”, “concentration.” for “concentration and, after they have dried, are populated with larvae of the mustard beetle (Phaedon cochleariae).”, “6 days,” for “the desired time,”, “mites” for “beetle larvae”

[3] = log P by HPLC/LC-MS on reversed-phase C18, formic acid method [b]; type: physicochemical; conditions: reversed-phase C18 HPLC column; pH 2.7, 0.1% aqueous formic acid and acetonitrile; read-out: logP (HCOOH)
Protocol: (§2) The log P values reported in the table above and in the preparation examples were determined in accordance with EEC Directive 79/831 Annex V.A8 by HPLC (High Performance Liquid Chromatography) on reversed-phase columns (C 18), with the following methods: ^[b] The determination is made by LC-MS in the acid range at pH 2.7 with 0.1% aqueous formic acid and acetonitrile (containing 0.1% formic acid) as eluents; linear gradient from 10% acetonitrile to 95% acetonitrile. Calibration took place with unbranched alkan-2-ones (having 3 to 16 carbon atoms) of known log P values (log P values determined from the retention times by linear interpolation between two successive alkanones).

[4] = log P by HPLC on reversed-phase C18, phosphoric acid method [a]; type: physicochemical; conditions: reversed-phase C18 HPLC column; pH 2.3, 0.1% aqueous phosphoric acid and acetonitrile; read-out: logP (H3PO4)
Protocol: as §2, with “^[a]” for “^[b]”, “made” for “made by LC-MS”, “2.3” for “2.7”, “phosphoric” for “formic”, “acetonitrile” for “acetonitrile (containing 0.1% formic acid)”

Meloidogyne incognita = Meloidogyne incognita test (MELGIN); type: in vivo; conditions: application rate 20 ppm, lettuce in sand, after 14 days
Protocol: Solvents: 80.0 parts by weight of acetone An appropriate preparation of active compound is prepared by mixing 1 part by weight of active compound with the stated amounts of solvent and emulsifier and diluting the concentrate with water to the desired concentration. Pots are filled with sand, solution of active compound, meloidogyne incognita egg/larvae suspension, and lettuce seeds. The lettuce seeds germinate and the plants develop. On the roots, the galls develop. After 14 days, the nematicidal effect is determined from the gall formation, in %. Here, 100% means that no galls were found; 0% means that the number of galls on the treated plants corresponds to that for the untreated control.

[5] = system: green peach aphid (Myzus persicae); experiment: Myzus test (MYZUPE spray treatment); type: in vivo; conditions: spray on Chinese cabbage leaf discs, application rate 500 g/ha, after 6 days
Protocol: as §1, with “Solvent: 78” for “Solvents: 78.0”, “pekinensis) infested by all stages of the green peach aphid (Myzus persicae)” for “pekinensis)”, “concentration.” for “concentration and, after they have dried, are populated with larvae of the mustard beetle (Phaedon cochleariae).”, “6 days,” for “the desired time,”, “aphids” for “beetle larvae”

Boophilus microplus [6] = experiment: Boophilus microplus test (BOOPMI injection); type: in vivo; conditions: injection into the abdomen, 20 μg/animal, after 7 days
Protocol: Solvent: Dimethyl Sulphoxide An appropriate preparation of active compound is prepared by mixing 10 mg of active compound with 0.5 ml of solvent and diluting the concentrate with solvent to the desired concentration. The solution of active compound is injected into the abdomen (Boophilus microplus) and the animals are transferred into dishes and kept in a controlled atmosphere. The activity is assessed on the basis of deposition of fertile eggs. After 7 days, the effect in % is determined. Here, 100% means that none of the ticks has laid fertile eggs.

Boophilus microplus [7] = experiment: Boophilus microplus (dip); type: in vivo; conditions: application rate 100 ppm, after 7 days
Protocol: Solvent: Dimethyl Sulphoxide A quantity of 10 mg of active compound is dissolved in 0.5 ml of dimethyl sulphoxide. To prepare a suitable formulation, the active compound solution is diluted with water to the particular desired concentration. This active compound preparation is pipetted into tubes. A quantity of 8-10 ticks is transferred into a further tube with holes. The tube is immersed in the active compound preparation, with all of the ticks being fully wetted. After the liquid has run off, the ticks are transferred to filter discs in plastic dishes and are kept in a conditioned room. The effect is monitored after 7 days on the basis of deposition of fertile eggs. Eggs whose fertility is not externally visible are stored in glass tubes until the larvae hatch, in a controlled-climate box. An activity of 100% means that none of the ticks has laid fertile eggs.

[8] = system: greenhouse red spidermite (Tetranychus urticae); experiment: Tetranychus test; OP resistant (TETRUR spray treatment), Example 7, comparison with prior art; type: in vivo; conditions: 6 d
Protocol: as §1, with “bean (Phaseolus vulgaris) infested by all stages of the greenhouse red spidermite (Tetranychus urticae)” for “Chinese cabbage (Brassica pekinensis)”, “concentration.” for “concentration and, after they have dried, are populated with larvae of the mustard beetle (Phaedon cochleariae).”, “mites” for “beetle larvae”

Row | Structure (SMILES) | chromatographic logP [3] | pest or weed control at 500 g/ha [1] [%] | pest or weed control at 100 g/ha [2] [%] | pest or weed control at 500 g/ha [2] [%] | other results
1 | Cc1cc(C)c([S+]([O-])CC#N)cc1-n1cnc(C(F)(F)F)n1 (stereo not drawn) [I-A-8] | 2.07 | – | – | 100 | –
2 | Cc1cc(C)c([S+]([O-])CC(F)(F)C(F)(F)F)cc1-n1cnc(C(F)(F)F)n1 (stereo not drawn) [I-A-10] | – | – | – | 100 | chromatographic logP [4]: 3.29
3 | Cc1cc(Cl)c(-n2cnc(C(F)(F)F)n2)cc1[S+]([O-])CC#N (stereo not drawn) [I-A-11] | 2.17 | – | – | 100 | nematicidal effect from gall formation (100% means that no galls were found) (Meloidogyne incognita): 90%
4 | Cc1cc(Cl)c(-n2cnc(C(F)(F)F)n2)cc1[S+]([O-])CC(F)F (stereo not drawn) [I-A-21] | 2.54 | – | – | 100 | –
5 | Cc1cc(F)c(-n2cnc(C(F)(F)F)n2)cc1[S+]([O-])CC#N (stereo not drawn) [I-A-15] | 1.99 | – | – | 100 | –
6 | Cc1cc(C)c([S+]([O-])CC(F)(F)C(F)F)cc1-n1cnc(C(F)(F)F)n1 (stereo not drawn) [I-A-5] | – | – | – | 100 | activity (100% means that all of the aphids have been killed) [5]: 90%; chromatographic logP [4]: 2.88; activity (100% means that none of the ticks has laid fertile eggs) (Boophilus microplus [6]): 100%
7 | Cc1cc(Cl)c(-n2cnc(C(F)(F)F)n2)cc1[S+]([O-])CC(F)(F)C(F)(F)F (stereo not drawn) [I-A-14] | 3.4 | 100 | – | 100 | –
8 | Cc1cc(Cl)c(-n2cnc(C(F)(F)F)n2)cc1SCC#N [I-A-12] | 3.12 | – | – | 100 | –
9 | Cc1cc(C)c(-n2cnc(C(F)(F)F)n2)cc1SCC(F)(F)C(F)F [I-A-3] | – | – | – | 100 | activity (100% means that none of the ticks has laid fertile eggs) (Boophilus microplus [7]): 90%; chromatographic logP [4]: 3.98; activity (100% means that none of the ticks has laid fertile eggs) (Boophilus microplus [6]): 100%
10 | Cc1cc(F)c(-n2cnc(C(F)(F)F)n2)cc1[S+]([O-])CC(F)(F)C(F)(F)F (stereo not drawn) [I-A-25] | 3.22 | 100 | 100 | – | –
11 | Cc1cc(C)c(-n2cnc(C(F)(F)F)n2)cc1SCC(F)(F)C(F)(F)F [I-A-4] | – | – | 100 | 100 | activity (100% means that none of the ticks has laid fertile eggs) (Boophilus microplus [7]): 90%; chromatographic logP [4]: 4.49; activity (100% means that none of the ticks has laid fertile eggs) (Boophilus microplus [6]): 100%
12 | Cc1cc(F)c(-n2cnc(C(F)(F)F)n2)cc1[S+]([O-])CC(F)F (stereo not drawn) [I-A-19] | 2.33 | 100 | 100 | – | –
13 | Cc1cc(C)c(-n2cnc(C(F)(F)F)n2)cc1SCC(F)(F)F [VI -297, reference compound] | – | – | – | – | % effect after application ([8]; 4 g/ha): 0%; % effect after application ([8]; 20 g/ha): 70%
14 | Cc1ccc(-n2cnc(C(F)(F)F)n2)c(C)c1 [IV-A-1, 3-(Trifluoromethyl)-1-(2,4-dimethylphenyl)-1H-1,2,4-triazole] | 3.19 | – | – | – | –
15 | Cc1cc(F)c(-n2cnc(C(F)(F)F)n2)cc1SCC#N [I-A-13] | 2.93 | – | – | 100 | –

Now from value to compound, other results behind:

Row | chromatographic logP [3] | Structure (SMILES) | pest or weed control at 500 g/ha [1] [%] | pest or weed control at 100 g/ha [2] [%] | pest or weed control at 500 g/ha [2] [%] | other results
16 | 2.79 | Cc1cc(F)c(-n2cnc(C(F)(F)F)n2)cc1[S+]([O-])CC(F)(F)C(F)F (stereo not drawn) [I-A-18] | 100 | 100 | – | –
17 | 2.86 | Cc1cc(C)c([S+]([O-])CCC(F)(F)F)cc1-n1cnc(C(F)(F)F)n1 (stereo not drawn) [I-A-7] | – | 90 | – | –
18 | 4.4 | Cc1cc(F)c(-n2cnc(C(F)(F)F)n2)cc1SCC(F)(F)C(F)(F)F [I-A-22] | – | 100 | – | –
19 | 3.08 | Cc1cc(C)c(-n2cnc(C(F)(F)F)n2)cc1SCC#N [I-A-9] | – | 100 | – | –
20 | 3.75 | Cc1cc(Cl)c(-n2cnc(C(F)(F)F)n2)cc1SCC(F)F [I-A-16] | 100 | 100 | – | –
21 | 4.06 | Cc1cc(Cl)c(-n2cnc(C(F)(F)F)n2)cc1SCC(F)(F)C(F)F [I-A-17] | 100 | 100 | – | –
22 | 3.87 | Cc1cc(F)c(-n2cnc(C(F)(F)F)n2)cc1SCC(F)(F)C(F)F [I-A-24] | 100 | 100 | – | –
23 | 2.41 | Cc1cc(C)c([S+]([O-])CC(F)F)cc1-n1cnc(C(F)(F)F)n1 (stereo not drawn) [I-A-2, 3-(trifluoromethyl)-1-{2,4-dimethyl-5-[(2,2-difluoroethyl)sulphinyl]phenyl}-1H-1,2,4-triazole] | – | 100 | – | activity (100% means that none of the ticks has laid fertile eggs) (Boophilus microplus [6]): 100%
24 | 3.01 | Cc1cc(Cl)c(-n2cnc(C(F)(F)F)n2)cc1[S+]([O-])CC(F)(F)C(F)F (stereo not drawn) [I-A-23] | 100 | – | 100 | –
25 | 4.57 | Cc1cc(Cl)c(-n2cnc(C(F)(F)F)n2)cc1SCC(F)(F)C(F)(F)F [I-A-26] | – | 90 | – | –
26 | 3.74 | Cc1cc(C)c(-n2cnc(C(F)(F)F)n2)cc1SCC(F)F [I-A-1, 3-(trifluoromethyl)-1-{2,4-dimethyl-5-[(2,2-difluoroethyl)sulphanyl]phenyl}-1H-1,2,4-triazole] | – | 100 | – | activity (100% means that none of the ticks has laid fertile eggs) (Boophilus microplus [6]): 100%
27 | 3.57 | Cc1cc(F)c(-n2cnc(C(F)(F)F)n2)cc1SCC(F)F [I-A-6] | 100 | 100 | – | –
28 | 4.32 | Cc1cc(C)c(-n2cnc(C(F)(F)F)n2)cc1SCCC(F)(F)F [I-A-20] | – | 100 | – | activity (100% means that all of the aphids have been killed) [5]: 100%
